Counter-ions that a name gives are not always drawn. Like-named read-outs stand apart in the source and are kept apart here.
Assays:
[1] = tested on: Female CFLP mice; experiment: Effect on energy expenditure and food intake of mice; type: in vivo; conditions: Mus musculus; for response vs control in vivo at 22.6 mg/kg / response vs control in vivo at 24.6 mg/kg / response vs control in vivo at 21.8 mg/kg / response vs control in vivo at 28.9 mg/kg / response vs control in vivo at 26.4 mg/kg / response vs control in vivo at 24.2 mg/kg / response vs control in vivo at 26.3 mg/kg / response vs control in vivo at 23.4 mg/kg / response vs control in vivo at 19.2 mg/kg / response vs control in vivo at 30.2 mg/kg / response vs control in vivo at 22.7 mg/kg / response vs control in vivo at 26.9 mg/kg / response vs control in vivo at 6.5 mg/kg / response vs control in vivo at 25.5 mg/kg / response vs control in vivo at 29.5 mg/kg / response vs control in vivo at 27.3 mg/kg / response vs control in vivo at 22 mg/kg: po, 21 h; for response vs control in vivo at 23.1 mg/kg: 23.1 mg/kg po; for response vs control in vivo at 23.1 mg/kg / response vs control in vivo at 18.4 mg/kg / response vs control in vivo at 24.3 mg/kg: mice, 21 hours after dosing, % of mice dosed with water; for response vs control in vivo at 18.4 mg/kg: 18.4 mg/kg po; for response vs control in vivo at 24.3 mg/kg: 24.3 mg/kg po
Description: Female CFLP mice each weighing approximately 24 g, were given food and water ad lib before and during the experiment. The compounds were dissolved in water by addition of one mole of hydrochloric acid per mole of compound and these solutions were administered orally to each of 12 mice. A further 12 mice were dosed orally with water. The mice were placed in boxes through which air was drawn and the oxygen content of the air leaving the boxes was measured. […] The food intake of the mice was measured over this same period of 21 hours. The results are expressed as a percentage of the mean food intake or rate of energy expenditure of the mice dosed with water.

[2] = tested on: Female CFLP mice; experiment: Anti-hyperglycaemic activity: subcutaneous glucose load in fasted mice, area under blood glucose curve; type: in vivo; conditions: glucose 1 g/kg sc, 2 hour period, vs water control
Description: Female CFLP mice, each weighing approximately 25 g, were fasted for 24 hours prior to the study. The compounds under study were administered orally as an aqueous solution to each of 6 mice. 6 mice were given water as a control. 30 minutes later a blood sample (20 µl) was obtained from the tail for the analysis of blood glucose. Immediately after taking this blood sample, glucose (1 g/kg body weight) was administered subcutaneously to each mouse. Blood samples were then obtained from each mouse at 30 minute intervals for 120 minutes.
Compounds that produced a significant (P<0.05) reduction of blood glucose, compared with control mice given water, at any time interval, were considered active. The area under the blood glucose curve over the 2 hour period after the administration of the glucose was calculated for each compound and compared with the value for control animals.

[3] = tested on: Rat hearts; experiment: Cardiac activity: rat hearts perfused by the Langendorff procedure; conditions: reference standard, maximum response, no dose given, perfused rat heart
Description: Rat hearts were perfused by the Langendorff procedure as follows:- • Hearts were dissected free within 30 seconds of death and reverse perfused via the aorta and coronary vessels with Krebs-Ringer bicarbonate solution (pH 7.4, 37°C) gassed with 95% oxygen:5% carbon dioxide at a flow rate between 8-12 cm^3/minute. Responses were observed after injection of drug dissolved in isotonic saline into the perfusion media.
Results are expressed as a percentage of the maximum response due to salbutamol.

[4] = read-out: Mean Energy Expenditure (%)

CC(Cc1ccc(OCCN2CCOCC2)cc1)NCC(O)c1cccc(C(F)(F)F)c1 (stereo not drawn) [Example 30, N-[2-(4-(2-(1-Morpholine)ethoxy)phenyl)-1-methylethyl]-2-hydroxy-2-(3-trifluoromethylphenyl)ethanamine]
response vs control in vivo at 22.6 mg/kg [1, 4]: 125% | response vs control in vivo at 22.6 mg/kg ([1]; read-out: Mean Food Intake (%)): 95%

CNCCOc1ccc(CC(C)NCC(O)c2cc3ccccc3o2)cc1.Cl.Cl (stereo not drawn) [Example 4, N-[2-(4-(2-Methylaminoethoxy)phenyl)-1-methylethyl]-2-hydroxy-2-(2-benzofuranyl) ethanamine dihydrochloride]
Reduction in area under Blood glucose curve (%) ([2]; 2.5 μ moles/kg po): 18% | response vs control in vivo at 24.6 mg/kg [1, 4]: 110% | response vs control in vivo at 24.6 mg/kg ([1]; read-out: Mean Food Intake (%)): 76%

CN(C)CCOc1ccc(CCC(C)(C)NCC(O)c2ccccc2)cc1.Cl.Cl (stereo not drawn) [Example 35, N-[3-(4-(2-Dimethylaminoethoxy)phenyl)-1,1-dimethylpropyl]-2-hydroxy-2-phenylethanamine dihydrochloride]
Reduction in area under Blood glucose curve (%) ([2]; 250 μ moles/kg po): 18% | response vs control in vivo at 23.1 mg/kg [1, 4]: 95% | response vs control in vivo at 23.1 mg/kg ([1]; read-out: Mean Food Intake (%)): 83%

CNCCOc1cccc(CC(C)NCC(O)c2cccc(Cl)c2)c1 (stereo not drawn) [Example 29, N-[2-(3-(2-Methylaminoethoxy)phenyll-1-methylethyl]-2-hydroxy-2-(3-chlorophenyl)ethanaminedihydrochloride]
Reduction in area under Blood glucose curve (%) ([2]; 12.5 μ moles/kg po): 48% | response vs control in vivo at 21.8 mg/kg [1, 4]: 123% | response vs control in vivo at 21.8 mg/kg ([1]; read-out: Mean Food Intake (%)): 107%

Br.Br.CCc1cccc(C(O)CNC(C)Cc2ccc(OCCNC)cc2)c1 (stereo not drawn) [Example 6, N-[2-(4-(2-Methylaminoethoxy)phenyl)-1-methylethyl]-2-hydroxy-2-(3-ethylphenyl)ethanamine dihydrobromide]
Reduction in area under Blood glucose curve (%) ([2]; 50 μ moles/kg po): 36.5% | response vs control in vivo at 28.9 mg/kg [1, 4]: 97% | response vs control in vivo at 28.9 mg/kg ([1]; read-out: Mean Food Intake (%)): 98%

CC(Cc1ccc(OCCN2CCCCC2)cc1)NCC(O)c1cccc(C(F)(F)F)c1 (stereo not drawn) [Example 26, N-[2-(4-(2-(1-Piperidine)ethoxy)phenyl)-1-methylethyl]-2-hydroxy-2-(3-trifluoromethylphenyl)ethanamine dihydrochloride monohydrate]
response vs control in vivo at 26.4 mg/kg [1, 4]: 125% | response vs control in vivo at 26.4 mg/kg ([1]; read-out: Mean Food Intake (%)): 63%

CCNCCOc1ccc(CC(C)NCC(O)c2cccc(C(F)(F)F)c2)cc1 (stereo not drawn) [Example 27, N-[2-(4-(2-Ethylaminoethoxy)phenyll-1-methylethyl]-2-hydroxy-2-(3-trifluoromethylphenyl)ethanaminedihydrochloride]
response vs control in vivo at 24.2 mg/kg [1, 4]: 143% | response vs control in vivo at 24.2 mg/kg ([1]; read-out: Mean Food Intake (%)): 100%

CNCCOc1ccc(C[C@@H](C)NC[C@H](O)c2cccc(Cl)c2)cc1 [Example 28, N-[2-(4-(2-Methylaminoethoxy)phenyl)-1-methylethyl]-2-hydroxy-2-(3-chlorophenyl)ethanamine dihydrochloride - (RR,SS) diastereoisomer]
Reduction in area under Blood glucose curve (%) ([2]; 0.5 μ moles/kg po): 42% | response vs control in vivo at 21.8 mg/kg [1, 4]: 135% | response vs control in vivo at 21.8 mg/kg ([1]; read-out: Mean Food Intake (%)): 108%

CNCCCCCCOc1ccc(CC(C)NCC(O)c2cccc(C(F)(F)F)c2)cc1 (stereo not drawn) [Example 33, N-[2-(4-(6-Methylaminohexyloxy)phenyl)-1-methylethyl]-2-hydroxy-2-(3-trifluoromethylphenyl)-ethanamine dihydrochloride]
response vs control in vivo at 26.3 mg/kg [1, 4]: 131% | response vs control in vivo at 26.3 mg/kg ([1]; read-out: Mean Food Intake (%)): 80%

CCOC(=O)NCCOc1ccc(CC(C)NCC(O)c2cccc(Cl)c2)cc1 (stereo not drawn) [Example 16, N-[2-(4-(2-Ethoxycarbonylamioethoxy)phenyl)-1-methylethyl]-2-hydroxy-2-(3-chlorophenyl)ethanamine]
Reduction in area under Blood glucose curve (%) ([2]; 1 μ moles/kg po): 68% | response vs control in vivo at 23.4 mg/kg [1, 4]: 141% | response vs control in vivo at 23.4 mg/kg ([1]; read-out: Mean Food Intake (%)): 91%

CC(Cc1ccc(OCC#N)cc1)NCC(O)c1cccc(Cl)c1 (stereo not drawn) [Example 38, N-[2-(4-Cyanomethoxylphenyl)-1-methylethyl]-2-hydroxy-2-(3-chlorophenyl)ethanamine]
Reduction in area under Blood glucose curve (%) ([2]; 0.5 μ moles/kg po): 63% | response vs control in vivo at 19.2 mg/kg [1, 4]: 132% | response vs control in vivo at 19.2 mg/kg ([1]; read-out: Mean Food Intake (%)): 81%

Br.Br.CNCCOc1ccc(CC(C)NCC(O)c2cccc(Cl)c2)cc1F (stereo not drawn) [Example 5, N-[2-(3-Fluoro-4-(2-methylaminoethoxy)phenyl)-1-methylethyl)-2-hydroxy-2-(3-chlorophenyl) ethanamine dihydrobromide]
Reduction in area under Blood glucose curve (%) ([2]; 1 μ moles/kg po): 38% | response vs control in vivo at 30.2 mg/kg [1, 4]: 134% | response vs control in vivo at 30.2 mg/kg ([1]; read-out: Mean Food Intake (%)): 102%

CC(C)(C)NCC(O)c1ccc(O)c(CO)c1 (stereo not drawn) [Salbutamol, reference compound]
Emax ([3]; read-out: Heart Rate): 100% | Emax ([3]; read-out: Heart Tension): 100%

CCN(CC)CCOc1ccc(CC(C)NCC(O)c2cccc(C(F)(F)F)c2)cc1.O=C(O)/C=C/C(=O)O (stereo not drawn) [Example 36, N-[2-(4-(2-Diethylaminoethoxy)phenyl)-1-methylethyl]-2-hydroxy-2-(3-trifluoromethylphenyl)ethanamine fumarate]
Reduction in area under Blood glucose curve (%) ([2]; 50 μ moles/kg po): 56% | response vs control in vivo at 22.7 mg/kg [1, 4]: 132% | response vs control in vivo at 22.7 mg/kg ([1]; read-out: Mean Food Intake (%)): 78%

NCCOc1ccc(CCNCC(O)c2cccc(C(F)(F)F)c2)cc1 (stereo not drawn) [Example 34, N-[2-(4-(2-Aminoethoxy)phenyl)ethyl]-2-hydroxy-2-(3-trifluoromethylphenyl)ethanamine]
response vs control in vivo at 18.4 mg/kg [1, 4]: 117% | response vs control in vivo at 18.4 mg/kg ([1]; read-out: Mean Food Intake (%)): 103%

CNCCOc1ccc(CC(C)NCC(O)c2ccc(Cl)cc2)cc1 (stereo not drawn) [Example 12, N-[2-(4-(2-Methylaminoethoxy)phenyl)-1-methylethyl]-2-hydroxy-2-(4-chlorophenyl)ethanamine dihydrochloride]
response vs control in vivo at 24.2 mg/kg [1, 4]: 120% | response vs control in vivo at 24.2 mg/kg ([1]; read-out: Mean Food Intake (%)): 99%

CC(Cc1ccc(OCCN2CCCCCC2)cc1)NCC(O)c1cccc(C(F)(F)F)c1 (stereo not drawn) [Example 15, N-[2-(4-(2-(1-Homopiperidine)ethoxy)phenyl)-1-methylethyl]-2-hydroxy-2-(3-trifluoromethylphenyl)-ethanamine dihydrochloride]
Reduction in area under Blood glucose curve (%) ([2]; 1 μ moles/kg po): 17% | response vs control in vivo at 26.9 mg/kg [1, 4]: 117% | response vs control in vivo at 26.9 mg/kg ([1]; read-out: Mean Food Intake (%)): 77%

CC(COc1ccc(CC(C)NCC(O)c2cccc(C(F)(F)F)c2)cc1)NCc1ccccc1 (stereo not drawn) [Example 31, N-[2-(4-(2-Benzylaminopropoxy)phenyl)-1-methylethyl]-2-hydroxy-2-(3-trifluoromethylphenyl)ethanamine]
Reduction in area under Blood glucose curve (%) ([2]; 50 μ moles/kg po): 45% | response vs control in vivo at 24.3 mg/kg [1, 4]: 100% | response vs control in vivo at 24.3 mg/kg ([1]; read-out: Mean Food Intake (%)): 59%

CNCCOc1ccc(C[C@H](C)NC[C@H](O)c2cccc(C(F)(F)F)c2)cc1 [Example 23, N-[2-(4-(2-Methylaminoethoxy)phenyl)-1-methylethyl]-2-hydroxy-2-(3-trifluoromethylphenyl)ethanamine dihydrochloride, (RS,SR) diastereoisomer]
Reduction in area under Blood glucose curve (%) ([2]; 2.5 μ moles/kg po): 20% | response vs control in vivo at 6.5 mg/kg [1, 4]: 109% | response vs control in vivo at 6.5 mg/kg ([1]; read-out: Mean Food Intake (%)): 112%

CC(Cc1ccc(OCCN2CCCC2)cc1)NCC(O)c1cccc(C(F)(F)F)c1 (stereo not drawn) [Example 25, N-[2-(4-(2-11-Pyrrolidine)ethoxy)phenyl)-1-methylethyl]-2-hydroxy-2-(3-trifluoromethylphenyl)ethanamine dihydrochloride]
response vs control in vivo at 25.5 mg/kg [1, 4]: 117% | response vs control in vivo at 25.5 mg/kg ([1]; read-out: Mean Food Intake (%)): 87%

CC(Cc1ccc(OCCNCc2ccccc2)cc1)NCC(O)c1cccc(Cl)c1 (stereo not drawn) [Example 13, N-[2-4-(2-Benzylaminoethoxy)phenyl)-1-methylethyl]-2-hydroxy-2-(3-chlorophenyl)ethanamine dihydrochloride monohydrate]
Reduction in area under Blood glucose curve (%) ([2]; 1 μ moles/kg po): 62% | response vs control in vivo at 29.5 mg/kg [1, 4]: 139% | response vs control in vivo at 29.5 mg/kg ([1]; read-out: Mean Food Intake (%)): 78%

CC(Cc1ccc(OCCN)cc1)NCC(O)c1cccc(C(F)(F)F)c1.Cl.Cl.O.O (stereo not drawn) [Example 19, N-[2-(4-(2-Aminoethoxy)phenyl)-1-methylethyl]-2-hydroxy-2-(3-trifluoromethylphenyl)ethanamine dihydrochloride, dihydrate]
Reduction in area under Blood glucose curve (%) ([2]; 1 μ moles/kg po): 46% | response vs control in vivo at 27.3 mg/kg [1, 4]: 135% | response vs control in vivo at 27.3 mg/kg ([1]; read-out: Mean Food Intake (%)): 94%

CNC(=O)NCCOc1ccc(CC(C)NCC(O)c2cccc(C(F)(F)F)c2)cc1 (stereo not drawn) [Example 17, N-[2-(4-(2-Methylaminocarbonylaminoethoxy)phenyl)-1-methylethyl]-2-hydroxy-2-(3-trifluoromethylphenyl)ethanamine]
response vs control in vivo at 22 mg/kg [1, 4]: 114% | response vs control in vivo at 22 mg/kg ([1]; read-out: Mean Food Intake (%)): 87%

— patent EP0070133B1, “Secondary phenylethanol amines, processes for their preparation and their pharmaceutical application” (priority 1981, dated 1983)
